Legend:
[1] = test system: advanced solid tumors; experiment: Preliminary antitumor activity, tumor response by RECIST v1.1; type: in vivo, human
[2] = test system: LoVo colorectal cancer cell line; experiment: LoVo growth inhibition, ceralasertib alone or with carboplatin; type: cell-based, human

C[C@@H]1COCCN1c1cc(C2([S@](C)(=N)=O)CC2)nc(-c2cc[nH]c3nccc2-3)n1 [ceralasertib]
Best response of progressive disease, patients ([1]; 12 of 34 response-evaluable patients): 35%
Best RECIST v1.1 response of stable disease (≥35 days), patients ([1]; 18 of 34 response-evaluable patients, including the two unconfirmed PRs): 53%
Unconfirmed RECIST v1.1 PRs ([1]; evaluable-for-response set n=34, 1 in cohort 3, 1 in cohort 7): 2 patients
Confirmed RECIST v1.1 partial responses ([1]; evaluable-for-response set n=34, both in cohort 6): 2 patients
Tumor reduction (unconfirmed response) ([1]; one patient, cohort 7, clear cell ovarian cancer, two cycles): 43%
Combination cell killing with carboplatin ([2]; 0.1 μmol/L ceralasertib): not at 0.1 μmol/L
Combination cell killing with carboplatin ([2]; 0.3 μmol/L ceralasertib): combination cell killing with carboplatin was seen
Combination cell killing with carboplatin ([2]; 1 μmol/L ceralasertib): Greater cell killing
